The target of this assay is T1, human Bradykinin B1 receptor (Homo sapiens, UniProt P46663).
T1 construct: host or cells: CHO-K1
T1 sequence (P46663 1-353): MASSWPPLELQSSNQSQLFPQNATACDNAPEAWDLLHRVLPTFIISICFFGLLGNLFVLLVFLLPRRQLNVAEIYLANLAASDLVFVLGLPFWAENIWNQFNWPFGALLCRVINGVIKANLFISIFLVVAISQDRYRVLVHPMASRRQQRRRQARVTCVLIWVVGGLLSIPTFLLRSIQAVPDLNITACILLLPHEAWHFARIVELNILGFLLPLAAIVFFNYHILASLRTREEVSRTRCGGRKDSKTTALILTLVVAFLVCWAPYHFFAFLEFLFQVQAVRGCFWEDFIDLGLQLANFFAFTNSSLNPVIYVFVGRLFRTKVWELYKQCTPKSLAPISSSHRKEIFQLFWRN
Nature of the assay: Calcium flux Assay (FLIPR) with cells expressing human Bradykinin B1 receptor (hB1). The format is cell-based. The conditions noted are these: absence of 0.1% BSA in assay buffer; CHO-K1 cell line expressing human B1 receptor; agonist Lys-(Des-Arg)-Bradykinin; read-out: hB1 free IC50. The method, then: The potency to inhibit the Bradykinin B1 receptor was determined for the compound examples of this invention in a cell-based fluorescent calcium-mobilisation assay. The assay measures the ability of compound examples to inhibit Bradykinin B1 receptor agonist-induced increase of intracellular free Ca^2+ in the cell line expressing Bradykinin B1 receptor. Specifically, calcium indicator-loaded cells are pre-incubated in the absence or presence of different concentrations of compound examples followed by the stimulation with a selective Bradykinin B1 receptor agonist peptide. The change of the intracellular Ca^2+ concentration is monitored with a fluorescent plate reader FLIPR^TETRA®
Calcium flux Assays (FLIPR) with cells expressing human Bradykinin B1 receptor (hB1) Calcium flux Assay (FLIPR) with recombinant cells for Bradykinin B1 receptor antagonist, either in the presence (hB1 IC50) or absence (hB1 free IC50) of 0.1% Bovine Serum Albumin (BSA) in assay buffer.
CHO—K1 cell line expressing human B1 receptor was purchased from Euroscreen (Gosselies, Belgium, with reference name hB1-D1). The cells were grown in Nutrient Mixture Ham's F12 (Sigma) containing 10% Foetal bovine serum (Sigma) and 400 μg/mL G418 (Sigma), 5 μg/mL puromycin (Sigma).
For the calcium flux assay, 80% confluent cells were detached from the culture vessels with Versene (Gibco), and seeded into 384-well plates (Cell binding Surface; Corning, N.Y.; #3683) at a density of 15,000 cells per well. Cells were seeded in a volume of 50 μL in medium without antibiotics and incubated overnight in a humidified atmosphere with 5% CO2 at 37° C. […] The calcium indicator loaded cells were incubated at 37° C. for 2 hrs. Extracellular dye was then removed and each well was filled with 45 μL of assay buffer. Cell plates were kept in dark until used. Example compounds were assayed at 8 concentrations in triplicate. Serial 10-fold dilutions in 100% DMSO were made at a 100-times higher concentration than the final concentration, and then diluted 1:10 in assay buffer. 5 μL of each diluted compound was added to the well of cell plates (yielding final concentration with 1% DMSO), and incubated for 30 min at 28° C. before the addition of B1 receptor agonist on the FLIPR instrument.
Agonist plates contained the agonist Lys-(Des-Arg)-Bradykinin (Bachem, Brackley) at 3.5×EC90 in assay buffer with 1% DMSO. The addition of agonist 20 μl per well to the assay plate was carried out on the FLIPR instrument while continuously monitoring Ca^2+-dependent fluorescence at 538 nm. A peptide antagonist Lys-(Des-Arg-Leu)-Bradykinin (Bachem, Brackley) at 20 μM was used to determine the full inhibition as control.
Peak fluorescence was used to determine the response to agonist obtained at each concentration of example compound by the following equation:
% Response=100*(RFU(example compound)−RFU(control))/(RFU(DMSO)−RFU(control)) • RFU means relative fluorescence units. • Control means full inhibition by the peptide antagonist Lys-(Des-Arg-Leu)-Bradykinin at 20
The response values were plotted against the logarithm of the example compound concentrations. The example compounds were tested in triplicates per plate and mean values were plotted in Excel XLfit to determine IC50 values, percentage of maximal inhibition and the Hill slopes.
IC50 values of example compounds in Calcium flux Assay (FLIPR) as shown in table 1 were determined according to the protocol described above in the absence of 0.1% BSA in assay buffer.
In general terms: Calcium flux is commonly read through the fluorescence of an indicator in the cells.
In the case of `COC(C)COC(=O)c1ccc(NC(=O)C2(c3ccc(C(F)(F)F)cc3F)CC2)cc1-c1nnn[nH]1` (racemic) [Example 31, 2-Methoxypropyl 4-[({1-[2-fluoro-4-(trifluoromethyl)phenyl]cyclopropyl}carbonyl)amino]-2-(1H-tetrazol-5-yl)benzoate], the IC50 came out at 9 nM.
The figure for `CC[C@@H](C)NC(=O)c1ccc(NC(=O)C2(c3ccc(C(F)(F)F)cc3F)CC2)cc1-c1nnn[nH]1` [Example 37, N-[(2R)-butan-2-yl]-4-[({1-[2-fluoro-4-(trifluoromethyl)phenyl]cyclopropyl}carbonyl)amino]-2-(1H-tetrazol-5-yl)benzamide] is 121 nM; for `CC[C@H](C)OC(=O)c1ccc(NC(=O)C2(c3ccc(C(F)(F)F)cc3F)CC2)cc1-c1nnn[nH]1` [Example 25, (2S)-Butan-2-yl 4-[({1-[2-fluoro-4-(trifluoromethyl)phenyl]cyclopropyl}carbonyl)amino]-2-(1H-tetrazol-5-yl)benzoate] it is 3 nM.
For the compound `CC(C)CN(C)C(=O)c1ccc(NC(=O)C2(c3ccc(C(F)(F)F)cc3F)CC2)cc1-c1nnn[nH]1` [Example 55, 4-[({1-[2-Fluoro-4-(trifluoromethyl)phenyl]cyclopropyl}carbonyl)amino]-N-isobutyl-N-methyl-2-(1H-tetrazol-5-yl)benzamide], the IC50 is 1770 nM.
In the case of `O=C(OCC1CCOCC1)c1ccc(NC(=O)C2(c3ccc(C(F)(F)F)cc3F)CC2)cc1-c1nnn[nH]1` [Example 22, Tetrahydro-2H-pyran-4-ylmethyl 4-[({1-[2-fluoro-4-(trifluoromethyl)phenyl]cyclopropyl}carbonyl)amino]-2-(1H-tetrazol-5-yl)benzoate], the IC50 was 18 nM.
For the compound `CC(C)COC(=O)c1ccc(NC(=O)C2(c3ccc(C(F)(F)F)cc3F)CC2)cc1-c1nnn[nH]1` [Example 28, Isobutyl 4-[({1-[2-fluoro-4-(trifluoromethyl)phenyl]cyclopropyl}carbonyl)amino]-2-(1H-tetrazol-5-yl)benzoate], the IC50 was found to be 3 nM.
As for `COC[C@@H](C)NC(=O)c1ccc(NC(=O)C2(c3ccc(C(F)(F)F)cc3F)CC2)cc1-c1nnn[nH]1` [Example 50, 4-[({1-[2-Fluoro-4-(trifluoromethyl)phenyl]cyclopropyl}carbonyl)amino]-N-[(2R)-1-methoxypropan-2-yl]-2-(1H-tetrazol-5-yl)benzamide], the IC50 was 89 nM.
As to `CN(C(=O)c1ccc(NC(=O)C2(c3ccc(C(F)(F)F)cc3F)CC2)cc1-c1nnn[nH]1)C1CCCCC1` [Example 43, N-cyclohexyl-4-[({1-[2-fluoro-4-(trifluoromethyl)phenyl]cyclopropyl}carbonyl)amino]-N-methyl-2-(1H-tetrazol-5-yl)benzamide], the IC50 worked out at 50 nM.
In the case of `CC[C@H](C)NC(=O)c1ccc(NC(=O)C2(c3ccc(C(F)(F)F)cc3F)CC2)cc1-c1nnn[nH]1` [Example 38, N-[(2S)-butan-2-yl]-4-[({1-[2-fluoro-4-(trifluoromethyl)phenyl]cyclopropyl}carbonyl)amino]-2-(1H-tetrazol-5-y)benzamide], the IC50 is 80 nM.
Regarding `Cc1ccc(NC(=O)c2c(C)cc(NC(=O)C3(c4ccc(C(F)(F)F)cc4F)CC3)cc2-c2nnn[nH]2)nc1` [Example 66, 4-[({1-[2-fluroo-4-(trifluoromethyl)phenyl]cyclopropyl}carbonyl)amino]-2-methyl-N-(5-methylpyridin-2-yl)-6-(1H-tetrazol-5-yl)benzamide], the IC50 worked out at 1450 nM.
For `CN(CC1CCCCC1)C(=O)c1ccc(NC(=O)C2(c3ccc(C(F)(F)F)cc3F)CC2)cc1-c1nnn[nH]1` [Example 12, N-(cyclohexylmethyl)-4-[({1-[2-fluoro-4-(trifluoromethyl)phenyl]cyclopropyl}carbonyl)amino]-N-methyl-2-(1H-tetrazol-5-yl)benzamide] the value was 412 nM.
For the compound `O=C(c1ccc(NC(=O)C2(c3cccc(Cl)c3)CC2)cc1-c1nnn[nH]1)N1CCCCC1` [Example 33, 1-(3-Chlorophenyl)-N-[4-(piperidin-1-ylcarbonyl)-3-(1H-tetrazol-5-yl)phenyl]cyclopropanecarboxamide], the IC50 amounted to 633 nM.
For the compound `CCC(C)(C)OC(=O)c1ccc(NC(=O)C2(c3ccc(C(F)(F)F)cc3F)CC2)cc1-c1nnn[nH]1` [Example 15, 2-Methylbutan-2-yl 4-[({1-[2-fluoro-4-(trifluoromethyl)phenyl]cyclopropyl}carbonyl)amino]-2-(1H-tetrazol-5-yl)benzoate], the IC50 amounted to 5220 nM.
For `CC[C@@H](C)OC(=O)c1ccc(NC(=O)C2(c3ccc(C(F)(F)F)cc3F)CC2)cc1-c1nnn[nH]1` [Example 24, (2R)-Butan-2-yl 4-[({1-[2-fluoro-4-(trifluoromethyl)phenyl]cycloproyl}carbonyl)amino]-2-(1H-tetrazol-5-yl)benzoate] the value was 2 nM.
`CN(C(=O)c1ccc(NC(=O)C2(c3cccc(Cl)c3)CC2)cc1-c1nnn[nH]1)C1CCCC1` [Example 40, 4-({[1-(3-Chlorophenyl)cyclopropyl]carbonyl}amino)-N-cylcopentyl-N-methyl-2-(1H-tetrazol-5-yl)benzamide]: the IC50 was 1240 nM.
With `Cc1cccc([C@@H]2C[C@H]2C(=O)Nc2ccc(C(=O)OC3CCCC3)c(-c3nnn[nH]3)c2)c1` (racemic) [Example 13, Cyclopentyl-4-({[2-(3-methylphenyl)cyclopropyl]carbonyl}amino)-2-(1H-tetrazol-5-yl)benzoate], the half-inhibitory concentration (IC50) was 47 nM.
Regarding `O=C(N[C@@H]1CCOC1)c1ccc(NC(=O)C2(c3ccc(C(F)(F)F)cc3F)CC2)cc1-c1nnn[nH]1` [Example 53, 4-[({1-[2-Fluoro-4-(trifluoromethyl)phenyl]cyclopropyl}carbonyl)amino]-N-[(3R)-tetrahydrofuran-3-yl]-2-(1H-tetrazol-5-yl)benzamide], the IC50 was found to be 3610 nM.
For the compound `Cc1ccc(NC(=O)c2ccc(NC(=O)C3(c4ccc(C(F)(F)F)cc4F)CC3)cc2-c2nnn[nH]2)cn1` [Example 57, 4-[({1-[2-Fluoro-4-(trifluoromethyl)phenyl]cyclopropyl}carbonyl)amino]-N-(6-methylpyridin-3-yl)-2-(1H-tetrazol-5-yl)benzamide], the IC50 is 29 nM.
For `O=C(O[C@H]1CCOC1)c1ccc(NC(=O)C2(c3ccc(C(F)(F)F)cc3F)CC2)cc1-c1nnn[nH]1` [Example 19, (3S)-Tetrahydrofuran-3-yl 4-[({1-[2-fluoro-4-(trifluoromethyl)phenyl]cyclopropyl}carbonyl)amino]-2-(1H-tetrazol-5-yl)benzoate] the value was 13 nM; for `Cc1ccc(NC(=O)c2c(F)cc(NC(=O)C3(c4ccc(C(F)(F)F)cc4F)CC3)cc2-c2nnn[nH]2)nc1` [Example 63, 2-Fluoro-4-[({1-[2-fluoro-4-(trifluoromethyl)phenyl]cyclopropyl}carbonyl)amino]-N-(5-methylpyridin-2-yl)-6-(1H-tetrazol-5-yl)benzamide], 51 nM; for `CCC(C)OC(=O)c1ccc(NC(=O)C2(c3ccc(C)cc3F)CC2)cc1-c1nnn[nH]1` (racemic) [Example 9, sec-Butyl 4-({[1-(2-fluoro-4-methylphenyl)cycloporopyl]carbonyl}amino)-2-(1H-tetrazol-5-yl)benzoate], 17 nM.

What is called IC50 is the concentration needed to halve the response being measured.

These data come from patent publication US20190177284A1, “TETRAZOLYL-CONTAINING CYCLOPROPANECARBOXAMIDES” (Bayer Pharma Aktiengesellschaft, priority 2017, published 2019).
